Measured values published in PubChem BioAssay (NCI).
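Dose response: 5 concentrations. Exposure: 48 h. Format: 96-well plates. Endpoint: linear interpolation; highest concentration if not reached. Here, GI50 denotes the concentration required for 50% inhibition of growth. Definition used: TGI = concentration required for complete inhibition of growth.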

Legend:
Experiment in all cases: NCI tumour cell line growth inhibition, 48 h
[1] = test system: M19-MEL melanoma
[2] = test system: SN12K1 renal
[3] = test system: DMS 114 small cell lung
[4] = test system: LXFL 529 NSCLC
[5] = test system: XF 498 CNS
[6] = test system: P388 leukemia
[7] = test system: P388/ADR leukemia
[8] = test system: PC-3 prostate
[9] = test system: DU-145 prostate
[10] = test system: MDA-N
[11] = test system: BT-549 breast
[12] = test system: RXF-631 renal

| SMILES | TGI [1] | TGI [3] | TGI [5] | TGI [8] | TGI [9] | TGI [10] | TGI [11] | also measured |
| --- | --- | --- | --- | --- | --- | --- | --- | --- |
| Nc1ccn(C2C=C(CO)C(O)C2O)c(=O)c1 (stereo not given) | > 625 µM | > 625 µM |  |  |  |  |  | TGI [2]: > 625 µM |
| O=C(Nc1nc2ccc([N+](=O)[O-])cc2s1)C(=O)C(C(=O)c1ccccc1F)C1OC(=O)c2ccccc21 (stereo not given) | > 100 µM | 87.3 µM | > 100 µM |  |  |  |  | TGI [4]: > 100 µM |
| CCN(CC)c1ccc2cc(C(=O)Nc3ccc4[nH]c(C(=O)N5C[C@@H](CCl)c6c5cc(OC(=O)Nc5ccccc5)c5[nH]cc(C)c65)cc4c3)oc2c1 | 922 µM | > 1000 µM |  |  |  |  |  | GI50 [1]: 237 µM; GI50 [2]: 128 µM; TGI [2]: 387 µM; GI50 [6]: 89.4 µM; GI50 [3]: 254 µM; TGI [7]: > 1000 µM |
| N#C[C@H](OC1OC(COC2OC(CO)C(O)C(O)C2O)C(O)C(O)C1O)c1ccccc1 (stereo not given in full) | > 250 µM | > 250 µM | > 25 µM |  |  |  |  | TGI [2]: > 250 µM; TGI [6]: > 250 µM; TGI [7]: > 158 µM |
| O=c1ssc(=Nc2ccccc2)n1-c1ccccc1 |  |  |  | 38.5 µM | 39.9 µM | > 100 µM |  |  |
| CCCCn1c(N)c(-c2nc3ccccc3o2)sc1=S |  |  |  | > 100 µM | 35.9 µM | 69.1 µM | 75.2 µM |  |
| Cn1c(=O)c2[nH]c(CCNC(=O)c3ccccc3)nc2n(C)c1=O |  |  |  | > 100 µM | > 100 µM | > 100 µM | > 100 µM |  |
| Cc1ccc(C2OC(COCc3ccc(Cl)cc3)C(OCc3ccc(Cl)cc3)C2O)cc1 (stereo not given) | 38.1 µM | 22.2 µM | 22.6 µM |  |  |  |  | TGI [4]: 58.5 µM |
| C[N+](C)(C)CCc1ccccc1 | > 100 µM | > 100 µM | > 100 µM |  |  |  |  | TGI [4]: > 100 µM; TGI [12]: > 100 µM |
| Cc1cc(S(=O)(=O)Nc2nc3ccccc3nc2-c2cccc([N+](=O)[O-])c2)c(S)cc1Cl |  |  |  | 50.8 µM | 36.8 µM | 46.2 µM | 72.8 µM |  |
| O=C1OC2(CC1C1(O)C3CC4CC(C3)CC1C4)C1CC3CC(C1)CC2C3 (stereo not given) | > 100 µM | > 100 µM | > 100 µM |  |  |  |  | TGI [4]: > 100 µM |
| O=C1C(Cl)=C(Nc2ccc(S(=O)(=O)O)cc2)C(=O)c2ccccc21 |  |  |  | 69.5 µM | 36.5 µM |  | > 100 µM |  |
| COc1nc(=O)n(COC(CO)CN2C(=O)c3ccccc3C2=O)cc1Cc1cccc(OCc2ccccc2)c1 (stereo not given) | 45.2 µM | 59.1 µM |  |  |  |  |  | TGI [4]: > 100 µM |
| OCCNCCN1CCN(CCCN2c3ccccc3Sc3ccc(C(F)(F)F)cc32)CC1 |  |  |  | 62.1 µM | > 100 µM | 33.7 µM | > 100 µM |  |
| O=C1C=CC2(C=C1)O[C@H](Cc1ccccc1)[C@@H](Cc1ccccc1)O2 |  |  |  | 3.34 µM | 5.89 µM | 0.66 µM | 0.563 µM |  |
| C=CC1(NC(=O)c2ccccc2)CCC(C(C)(C)C)CC1 (stereo not given) | 84.4 µM | > 90.7 µM | > 70.6 µM |  |  |  |  | TGI [2]: > 96.7 µM; TGI [6]: 38.4 µM; TGI [7]: > 77.4 µM |
| CCCNC(=O)C(C)C1CCC2(C)C=CC(=O)C(C)=C2C1O (stereo not given) | > 100 µM | > 100 µM | > 100 µM |  |  |  |  | TGI [2]: > 100 µM; TGI [6]: > 100 µM; TGI [7]: > 100 µM |
